Data published in EP0129628A1, “Medicine, especially useful in psychiatry, which uses as the active constituent a lithium N-alkylcarbamoyl phosphate” (Richard, Marcel, priority 1983, dated 1985).

Legend:
sécrétion de sérotonine = assay: test on serotonin secretion; assay type: in vivo, souris et/ou des chiens
[1] = tested on: systèmes dopaminer- gines; assay: test evaluating blockade of the dopaminergic systems; assay type: in vivo, souris et/ou des chiens
motilité = assay: motility test; assay type: in vivo, souris et/ou des chiens; conditions: dose de 13,5 MEq par kilo (carbonate de lithium: dose correspondante)
test plaque chaude = assay: comparative analgesic activity (hot plate test); assay type: in vivo, souris et/ou des chiens; conditions: dose de 13 MEq par kilo
[2] = acute toxicity (DL50), oral route; conditions: mouse, in vivo, souris, par voie orale
Method: L'invention concerne enfin les médicaments qui contiennent au moins un produit de formule (1). Il a été trouvé en effet que les produits de formule (1) avaient une toxicité faible (la DL50 pour la souris et pour le produit de formule 1 dans lequel R est CH3 étant environ 3 200 mg/kg par voie orale) et une activité pharmacologique qui peut s'exprimer comme suit : • - diminution et/ou blocage des systèmes dopaminer- giques, • - augmentation, au moins transitoire, de la systhè- se de la sérotonine, • - pouvoir analgésique, les conséquences de ces actions se retrouvant dans les constatations suivantes : • - diminution de l'agressivité, • - diminution de la motilité et de la curiosité, • - protection contre les convulsions.

[3] = tested on: agressivité induite par des chocs électriques; assay: aggressiveness induced by electric shocks; assay type: in vivo, souris et/ou des chiens
[4] = tested on: convulsions produites par un électrochoc; assay: convulsions produced by electroshock; assay type: in vivo, souris et/ou des chiens; conditions: dose de 5 MEq par kilo

SMILES | dose active après 24 heures (sécrétion de sérotonine) | dose active à 50 % [1] | la motilité baisse (motilité) | protection (test plaque chaude) | dose active à 100 % [1] | LD50 [2] | dose active [3] | protection des sujets [4]
O=C(O)O [carbonate de lithium, reference compound] | 10 MEq par kilo | 10,115 MEq par kilo | 12% | 27% | – | – | – | –
CNC(=O)OP(=O)(O)O [N-méthyl-carbamoylphosphate de lithium] | 6,75 MEq par kilo | – | 36% | 42% | 6,75 MEq par kilo | ~3200 mg/kg | 10 MEq par kilo | 40%
